Test results: US11578073B2, “Xanthine analogs as potent anti-West Nile viral agents” (Southern Research Institute, priority 2019, dated 2023)

How the values were obtained:
[1] = tested on: West Nile virus; experiment: anti-West Nile virus activity of xanthine analogs in HEK293 cells; assay type: cell-based; settings: HEK293, read-out: EC90 (effective concentration to inhibit 90% of virus)
[2] = cell viability assay (cytotoxicity) in HEK293 cells; assay type: cell-based; settings: human, read-out: CC50 (50% cytotoxicity concentration)

Row | SMILES | EC90 [1] [µM] | CC50 [2] [µM]
1 | Cn1c(=O)[nH]c(=O)c2c1nc(N1CCN(c3cccc(C(C)(C)C)c3)CC1)n2Cc1ccccc1F [Compound 28, 8-(4-(3-(tert-butyl)phenyl)piperazin-1-yl)-7-(2-fluorobenzyl)-3-methyl-3,7-dihydro-1H-purine-2,6-dione] | 10 | > 40
2 | Cn1c(=O)[nH]c(=O)c2c1nc(N1CCN(c3ccc(C(F)(F)F)cc3)CC1)n2Cc1ccccc1F [Compound 30, 7-(2-Fluorobenzyl)-3-methyl-8-(4-(4-(trifluoromethyl)phenyl)piperazin-1-yl)-3,7-dihydro-1H-purine-2,6-dione] | 6.5 | 12.9
3 | Cn1c(=O)[nH]c(=O)c2c1nc(N1CCN(Cc3ccc(C(F)(F)F)cc3)CC1)n2Cc1ccccc1F [Compound 34, 7-(2-Fluorobenzyl)-3-methyl-8-(4-(4-(trifluoromethyl)benzyl)piperazin-1-yl)-3,7-dihydro-1H-purine-2,6-dione] | 9.4 | > 30
4 | Cn1c(=O)[nH]c(=O)c2c1nc(N1CCN(Cc3ccc(F)cc3)CC1)n2Cc1ccccc1F [Compound 35, 7-(2-Fluorobenzyl)-8-(4-(4-fluorobenzyl)piperazin-1-yl)-3-methyl-3,7-dihydro-1H-purine-2,6-dione] | 10.5 | > 30
5 | Cn1c(=O)[nH]c(=O)c2c1nc(N1CCN(Cc3ccc(C(C)(C)C)cc3)CC1)n2Cc1ccccc1F [Compound 36, 8-(4-(4-(tert-butyl)benzyl)piperazin-1-yl)-7-(2-fluorobenzyl)-3-methyl-3,7-dihydro-1H-purine-2,6-dione] | 0.87 | > 30
6 | Cn1c(=O)[nH]c(=O)c2c1nc(N1CCN(Cc3ccc(C(C)(C)C)cc3)C(C(=O)O)C1)n2Cc1ccccc1F (stereo not drawn) [Compound 37, 1-(4-(tert-butyl)benzyl)-4-(7-(2-fluorobenzyl)-3-methyl-2,6-dioxo-2,3,6,7-tetrahydro-1H-purin-8-yl)piperazine-2-carboxylic Acid] | > 10 | > 40
7 | Cn1c(=O)[nH]c(=O)c2c1nc(N1CCN(Cc3ccc(C(C)(C)C)nc3)CC1)n2Cc1ccccc1F [Compound 38, 8-(4-((6-(tert-Butyl)pyridin-3-yl)methyl)piperazin-1-yl)-7-(2-fluorobenzyl)-3-methyl-3,7-dihydro-1H-purine-2,6-dione] | 16 | 34.2
8 | Cn1c(=O)[nH]c(=O)c2c1nc(N1CCN(Cc3ccc(C(C)(C)C#N)cc3)CC1)n2Cc1ccccc1F [Compound 39, 2-(4-((4-(7-(2-Fluorobenzyl)-3-methyl-2,6-dioxo-2,3,6,7-tetrahydro-1H-purin-8-yl)piperazin-1-yl)methyl)phenyl)-2-methylpropanenitrile] | > 30 | > 40
9 | Cn1c(=O)[nH]c(=O)c2c1nc(N1CCN(Cc3ccc(C(C)(C)O)cc3)CC1)n2Cc1ccccc1F [Compound 40, 7-(2-fluorobenzyl)-8-(4-(4-(2-hydroxypropan-2-yl)benzyl)piperazin-1-yl)-3-methyl-3,7-dihydro-1H-purine-2,6-dione] | > 10 | > 40
10 | CC(C)c1ccc(CN2CCN(c3nc4c(c(=O)[nH]c(=O)n4C)n3Cc3ccccc3F)CC2)cc1 [Compound 41, 7-(2-Fluorobenzyl)-8-(4-(4-isopropylbenzyl)piperazin-1-yl)-3-methyl-3,7-dihydro-1H-purine-2,6-dione] | 1.1 | 24
11 | C=C(C)c1ccc(CN2CCN(c3nc4c(c(=O)[nH]c(=O)n4C)n3Cc3ccccc3F)CC2)cc1 [Compound 42, 7-(2-Fluorobenzyl)-3-methyl-8-(4-(4-(prop-1-en-2-yl)benzyl)piperazin-1-yl)-3,7-dihydro-1H-purine-2,6-dione] | 2.1 | 22
12 | Cc1ccc(C)c(C(=O)N2CCN(c3nc4c(c(=O)[nH]c(=O)n4C)n3Cc3ccccc3F)CC2)c1 [Compound 43, 8-(4-(2,5-Dimethylbenzoyl)piperazin-1-yl)-7-(2-fluorobenzyl)-3-methyl-3,7-dihydro-1H-purine-2,6-dione] | > 10 | > 40
13 | Cn1c(=O)[nH]c(=O)c2c1nc(N1CCN(C(=O)c3ccc(C(C)(C)C)cc3)CC1)n2Cc1ccccc1F [Compound 44, 8-(4-(4-(tert-Butyl)benzoyl)piperazin-1-yl)-7-(2-fluorobenzyl)-3-methyl-3,7-dihydro-1H-purine-2,6-dione] | 8.8 | > 30
14 | Cn1c(=O)[nH]c(=O)c2c1nc(N1CCN(C(=O)Cc3ccc(C(C)(C)C)cc3)CC1)n2Cc1ccccc1F [Compound 50, 8-(4-(2-(4-(tert-Butyl)phenyl)acetyl)piperazin-1-yl)-7-(2-fluorobenzyl)-3-methyl-3,7-dihydro-1H-purine-2,6-dione] | 3.7 | > 30
15 | Cn1c(=O)[nH]c(=O)c2c1nc(N1CCC(C)(C)CC1)n2Cc1ccccc1F [Compound 52, 8-(4,4-Dimethylpiperidin-1-yl)-7-(2-fluorobenzyl)-3-methyl-3,7-dihydro-1H-purine-2,6-dione] | 3.9 | > 30
16 | Cn1c(=O)[nH]c(=O)c2c1nc(N1CCC(c3ccccc3)CC1)n2Cc1ccccc1F [Compound 56, 7-(2-Fluorobenzyl)-3-methyl-8-(4-phenylpiperidin-1-yl)-3,7-dihydro-1H-purine-2,6-dione] | 2.4 | 10.7
17 | Cn1c(=O)[nH]c(=O)c2c1nc(N1CCC(c3cccc(F)c3)CC1)n2Cc1ccccc1F [Compound 57, 7-(2-Fluorobenzyl)-8-(4-(3-fluorophenyl)piperidin-1-yl)-3-methyl-3,7-dihydro-1H-purine-2,6-dione] | 4.4 | > 30
18 | CC(C)(C)c1ccc(CN2CCN(c3nc4[nH]c(=O)[nH]c(=O)c4n3Cc3ccccc3F)CC2)cc1 [Compound 64, 8-(4-(4-(tert-butyl)benzyl)piperazin-1-yl)-7-(2-fluorobenzyl)-3,7-dihydro-1H-purine-2,6-dione] | 9 | 10
